Results on 19 molecules are retold here after US7511077B2, “Diamine calcium channel blockers” (Neuromed Pharmaceuticals Ltd., priority 2005, dated 2009).

Where two headings read alike, the source gives them in different places.

The target of test [1] is T1, rat brain N-type calcium channel subunits (α1B+α2δ+β1b cDNA subunits) (Rattus norvegicus, UniProt Q02294).
T1 construct: expressed in transfected cells; host or cells: HEK 293
Put plainly: N-type calcium channel block, whole cell patch clamp in HEK 293 cells. In kind it is cell-based. Conditions: holding potential −80 mV to +10 mV. On the procedure:
N-type calcium channel blocking activity was assayed in human embryonic kidney cells, HEK 293, stably transfected with the rat brain N-type calcium channel subunits (α1B+α2δ+β1b cDNA subunits). Alternatively, N-type calcium channels (α1B+α2δ+β1b cDNA subunits), L-type channels (α1C+α2δ+β1b cDNA subunits) and P/Q-type channels (α1A+α2δ+β1b cDNA subunits) were transiently expressed in HEK 293 cells. Briefly, cells were cultured in Dulbecco's modified eagle medium (DMEM) supplemented with 10% fetal bovine serum, 200 U/ml penicillin and 0.2 mg/ml streptomycin at 37° C. with 5% CO2. At 85% confluency cells were split with 0.25% trypsin/1 mM EDTA and plated at 10% confluency on glass coverslips. At 12 hours the medium was replaced and the cells transiently transfected using a standard calcium phosphate protocol and the appropriate calcium channel cDNA's. Fresh DMEM was supplied and the cells transferred to 28° C./5% CO2. Cells were incubated for 1 to 2 days prior to whole cell recording.
Whole cell patch clamp experiments were performed using an Axopatch 200B amplifier (Axon Instruments, Burlingame, Calif.) linked to a personal computer equipped with pCLAMP software. The external and internal recording solutions contained, respectively, 5 mM BaCl2, 10 mM MgCl2, 10 mM HEPES, 40 mM TEACl, 10 mM glucose, 87.5 mM CsCl (pH 7.2) and 108 mM CsMS, 4 mM MgCl2, 9 mM EGTA, 9 mM HEPES (pH 7.2). Currents were typically elicited from a holding potential of −80 mV to +10 mV using Clampex software (Axon Instruments). Typically, currents were first elicited with low frequency stimulation (0.067 Hz) and allowed to stabilize prior to application of the compounds. The compounds were then applied during the low frequency pulse trains for two to three minutes to assess tonic block, and subsequently the pulse frequency was increased to 0.2 Hz to assess frequency dependent block. Data were analyzed using Clampfit (Axon Instruments) and SigmaPlot 4.0 (Jandel Scientific).
On the technique in general: Patch clamp records ionic current or voltage across a cell membrane.

Test [2] addresses T2, human α1G T-type channels (Homo sapiens, UniProt O43497).
T2 construct: expressed in transfected cells; host or cells: HEK cell lines
As to the kind of experiment: T-type calcium channel block, patch clamp in HEK cell lines. It is filed as cell-based. On the procedure:
Standard patch-clamp techniques were employed to identify blockers of T-type currents. Briefly, previously described HEK cell lines stably expressing human α1G T-type channels were used for all the recordings (passage #: 4-20, 37° C., 5% CO2). To obtain T-type currents, plastic dishes containing semi-confluent cells were positioned on the stage of a ZEISS AXIOVERT S100 microscope after replacing the culture medium with external solution (see below). Whole-cell patches were obtained using pipettes (borosilicate glass with filament, O.D.: 1.5 mm, I.D.: 0.86 mm, 10 cm length), fabricated on a SUTTER P-97 puller with resistance values of ˜5 MΩ (see below for internal solution).
T-type currents were reliably obtained by using two voltage protocols: • (1) “non-inactivating”, and (2) “inactivation”
In the non-inactivating protocol, the holding potential is set at −110 mV and with a pre-pulse at −100 mV for 1 second prior to the test pulse at −40 mV for 50 ms. In the inactivation protocol, the pre-pulse is at approximately −85 mV for 1 second, which inactivates about 15% of the T-type channels.
Test compounds were dissolved in external solution, 0.1-0.01% DMSO. After ˜10 min rest, they were applied by gravity close to the cell using a WPI microfil tubing. The “non-inactivated” pre-pulse was used to examine the resting block of a compound. The “inactivated” protocol was employed to study voltage-dependent block. However, the initial data shown below were mainly obtained using the non-inactivated protocol only. IC50 values are shown for various compounds of the invention in Table 5.

Where [3] appears, read: low frequency stimulation 0.067 Hz (tonic block), read-out: IC50 @ 0.067 Hz.
The mark [4] stands for this setting: pulse frequency 0.2 Hz (frequency dependent block), read-out: IC50 @ 0.2 Hz.
Setting [5] is: non-inactivating protocol, pre-pulse −100 mV (resting block), read-out: IC50 @ −100 mV.
Setting [6] is: −80 mV (inactivation protocol, voltage-dependent block), read-out: IC50 @ −80 mV.

By IC50 is commonly meant the concentration that inhibits the measured activity by half.

T2 sequence (O43497 whole entry): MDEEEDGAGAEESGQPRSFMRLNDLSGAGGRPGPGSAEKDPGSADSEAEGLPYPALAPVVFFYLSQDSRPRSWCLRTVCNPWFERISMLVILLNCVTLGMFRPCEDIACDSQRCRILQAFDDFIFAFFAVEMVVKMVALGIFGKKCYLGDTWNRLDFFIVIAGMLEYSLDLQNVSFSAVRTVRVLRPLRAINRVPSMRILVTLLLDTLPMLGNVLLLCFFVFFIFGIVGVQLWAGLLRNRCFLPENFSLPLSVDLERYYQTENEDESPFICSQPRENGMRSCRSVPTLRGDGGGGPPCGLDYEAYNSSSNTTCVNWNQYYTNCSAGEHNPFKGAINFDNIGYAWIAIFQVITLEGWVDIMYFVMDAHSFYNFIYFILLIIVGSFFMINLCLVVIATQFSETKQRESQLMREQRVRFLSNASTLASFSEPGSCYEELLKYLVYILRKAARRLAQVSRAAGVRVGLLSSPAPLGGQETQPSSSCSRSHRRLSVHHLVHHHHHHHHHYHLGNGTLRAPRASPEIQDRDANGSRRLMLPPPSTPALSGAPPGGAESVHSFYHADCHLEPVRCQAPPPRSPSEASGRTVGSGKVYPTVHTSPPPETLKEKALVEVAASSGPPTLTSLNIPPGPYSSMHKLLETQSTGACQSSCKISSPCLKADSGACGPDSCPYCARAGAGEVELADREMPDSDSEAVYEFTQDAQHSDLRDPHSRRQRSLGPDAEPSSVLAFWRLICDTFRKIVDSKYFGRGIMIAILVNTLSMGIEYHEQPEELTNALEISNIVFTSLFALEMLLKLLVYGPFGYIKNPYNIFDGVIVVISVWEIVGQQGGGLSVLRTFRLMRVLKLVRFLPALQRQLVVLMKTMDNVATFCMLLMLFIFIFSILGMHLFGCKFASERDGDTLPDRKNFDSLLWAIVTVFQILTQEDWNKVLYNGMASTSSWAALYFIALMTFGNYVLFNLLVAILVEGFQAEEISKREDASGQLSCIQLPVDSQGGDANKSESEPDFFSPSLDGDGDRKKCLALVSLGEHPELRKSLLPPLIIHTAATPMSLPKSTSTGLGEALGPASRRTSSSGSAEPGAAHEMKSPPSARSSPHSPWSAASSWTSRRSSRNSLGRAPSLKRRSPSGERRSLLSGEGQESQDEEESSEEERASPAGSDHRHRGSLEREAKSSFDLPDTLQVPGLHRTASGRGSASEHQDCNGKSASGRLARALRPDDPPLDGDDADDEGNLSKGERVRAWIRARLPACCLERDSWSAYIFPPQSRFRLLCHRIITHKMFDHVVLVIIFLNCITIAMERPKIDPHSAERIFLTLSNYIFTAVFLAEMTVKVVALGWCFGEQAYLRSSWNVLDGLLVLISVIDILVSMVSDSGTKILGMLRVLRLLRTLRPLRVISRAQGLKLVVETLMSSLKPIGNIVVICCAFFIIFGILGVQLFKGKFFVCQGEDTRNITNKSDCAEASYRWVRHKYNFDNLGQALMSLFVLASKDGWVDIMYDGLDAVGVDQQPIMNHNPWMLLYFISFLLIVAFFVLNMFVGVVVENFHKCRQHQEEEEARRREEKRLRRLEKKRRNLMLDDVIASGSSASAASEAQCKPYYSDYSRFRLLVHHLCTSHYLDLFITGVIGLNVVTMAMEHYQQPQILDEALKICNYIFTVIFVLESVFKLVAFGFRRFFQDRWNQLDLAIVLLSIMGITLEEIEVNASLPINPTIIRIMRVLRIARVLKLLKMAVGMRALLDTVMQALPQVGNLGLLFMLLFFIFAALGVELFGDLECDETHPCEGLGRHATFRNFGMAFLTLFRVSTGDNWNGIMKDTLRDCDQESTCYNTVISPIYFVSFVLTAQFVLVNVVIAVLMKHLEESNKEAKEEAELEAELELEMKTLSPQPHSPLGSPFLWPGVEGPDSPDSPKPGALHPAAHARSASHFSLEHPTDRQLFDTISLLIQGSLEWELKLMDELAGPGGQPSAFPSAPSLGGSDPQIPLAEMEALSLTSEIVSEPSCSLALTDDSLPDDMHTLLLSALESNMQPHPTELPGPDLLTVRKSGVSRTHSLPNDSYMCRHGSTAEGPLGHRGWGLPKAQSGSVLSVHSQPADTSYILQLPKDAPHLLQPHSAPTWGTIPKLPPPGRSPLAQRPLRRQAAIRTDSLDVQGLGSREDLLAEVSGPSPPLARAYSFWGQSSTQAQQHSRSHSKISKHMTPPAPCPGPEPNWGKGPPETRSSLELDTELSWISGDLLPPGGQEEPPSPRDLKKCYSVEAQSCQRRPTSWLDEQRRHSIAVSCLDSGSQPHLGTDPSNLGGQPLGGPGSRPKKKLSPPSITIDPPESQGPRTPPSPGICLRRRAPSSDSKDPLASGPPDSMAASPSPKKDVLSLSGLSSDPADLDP
T1 sequence (Q02294 whole entry): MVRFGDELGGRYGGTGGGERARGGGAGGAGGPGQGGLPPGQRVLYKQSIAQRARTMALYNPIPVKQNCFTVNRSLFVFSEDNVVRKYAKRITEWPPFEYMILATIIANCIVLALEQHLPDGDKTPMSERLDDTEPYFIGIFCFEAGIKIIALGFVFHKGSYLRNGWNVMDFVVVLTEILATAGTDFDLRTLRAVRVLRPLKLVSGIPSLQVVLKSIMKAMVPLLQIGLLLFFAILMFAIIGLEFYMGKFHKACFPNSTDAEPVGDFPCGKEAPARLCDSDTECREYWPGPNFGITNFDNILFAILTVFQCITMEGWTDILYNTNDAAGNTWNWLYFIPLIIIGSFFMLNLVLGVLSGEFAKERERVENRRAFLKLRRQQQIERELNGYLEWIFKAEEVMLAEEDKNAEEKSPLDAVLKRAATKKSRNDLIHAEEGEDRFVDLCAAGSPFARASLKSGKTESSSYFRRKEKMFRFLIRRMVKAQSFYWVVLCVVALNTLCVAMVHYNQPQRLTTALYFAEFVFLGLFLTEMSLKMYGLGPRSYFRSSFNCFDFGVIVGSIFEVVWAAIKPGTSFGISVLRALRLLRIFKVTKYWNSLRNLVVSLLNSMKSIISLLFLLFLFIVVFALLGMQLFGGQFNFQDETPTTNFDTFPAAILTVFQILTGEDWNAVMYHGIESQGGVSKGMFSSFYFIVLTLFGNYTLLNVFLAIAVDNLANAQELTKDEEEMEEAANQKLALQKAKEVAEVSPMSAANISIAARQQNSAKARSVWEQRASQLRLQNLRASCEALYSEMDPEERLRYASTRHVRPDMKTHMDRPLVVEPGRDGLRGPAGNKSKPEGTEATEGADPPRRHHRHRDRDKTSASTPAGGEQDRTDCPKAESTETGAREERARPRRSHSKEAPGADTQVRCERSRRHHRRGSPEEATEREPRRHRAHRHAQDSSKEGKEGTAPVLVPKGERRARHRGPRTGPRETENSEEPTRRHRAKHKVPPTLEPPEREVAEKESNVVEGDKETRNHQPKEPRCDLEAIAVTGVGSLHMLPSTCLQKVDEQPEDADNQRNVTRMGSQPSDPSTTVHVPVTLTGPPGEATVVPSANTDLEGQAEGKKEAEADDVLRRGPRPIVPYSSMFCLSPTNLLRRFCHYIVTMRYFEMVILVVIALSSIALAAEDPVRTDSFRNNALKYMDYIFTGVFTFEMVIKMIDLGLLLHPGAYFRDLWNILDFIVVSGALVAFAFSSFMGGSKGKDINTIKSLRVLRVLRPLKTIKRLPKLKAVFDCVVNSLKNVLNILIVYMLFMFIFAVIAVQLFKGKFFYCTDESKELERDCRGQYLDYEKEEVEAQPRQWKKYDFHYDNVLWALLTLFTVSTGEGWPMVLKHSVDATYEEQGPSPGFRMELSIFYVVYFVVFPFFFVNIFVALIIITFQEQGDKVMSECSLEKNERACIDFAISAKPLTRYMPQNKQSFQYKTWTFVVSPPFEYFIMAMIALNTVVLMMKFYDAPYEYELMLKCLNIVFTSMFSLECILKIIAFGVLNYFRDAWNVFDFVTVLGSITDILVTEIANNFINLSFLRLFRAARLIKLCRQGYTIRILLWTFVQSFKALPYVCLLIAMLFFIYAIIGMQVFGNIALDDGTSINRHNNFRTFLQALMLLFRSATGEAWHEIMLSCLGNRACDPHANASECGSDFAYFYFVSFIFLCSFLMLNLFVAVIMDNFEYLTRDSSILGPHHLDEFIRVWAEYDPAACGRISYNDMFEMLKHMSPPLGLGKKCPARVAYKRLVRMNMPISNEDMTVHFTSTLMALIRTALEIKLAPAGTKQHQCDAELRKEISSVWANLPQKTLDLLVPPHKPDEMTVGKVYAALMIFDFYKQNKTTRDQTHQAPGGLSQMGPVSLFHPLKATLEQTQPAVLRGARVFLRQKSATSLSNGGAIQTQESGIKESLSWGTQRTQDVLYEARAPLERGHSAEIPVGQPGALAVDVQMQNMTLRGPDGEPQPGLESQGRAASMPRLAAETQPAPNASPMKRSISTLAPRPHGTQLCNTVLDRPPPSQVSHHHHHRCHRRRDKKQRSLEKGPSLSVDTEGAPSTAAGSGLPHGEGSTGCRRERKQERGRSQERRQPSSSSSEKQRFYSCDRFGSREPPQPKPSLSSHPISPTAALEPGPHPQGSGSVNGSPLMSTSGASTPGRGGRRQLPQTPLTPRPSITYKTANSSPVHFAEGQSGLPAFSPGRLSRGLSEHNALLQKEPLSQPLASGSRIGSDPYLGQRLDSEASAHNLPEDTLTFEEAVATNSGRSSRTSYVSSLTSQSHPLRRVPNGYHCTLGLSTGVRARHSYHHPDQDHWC

Consider `COc1cc(C(=O)NC/C=C\CNC(=O)CCCCC(c2ccc(F)cc2)c2ccc(F)cc2)cc(OC)c1OC` [Compound P1, N-{(Z)-4-[6,6-Bis-(4-fluoro-phenyl)-hexanoylamino]-but-2-enyl}-3,4,5-trimethoxy-benzamide], for which the values for the IC50 in test [1] (setting [3]) and in test [1] (setting [4]) were 230 nM and 190 nM, respectively.
Take `COc1cc(C(=O)NCC#CCNC(=O)CCCCC(c2ccc(F)cc2)c2ccc(F)cc2)cc(OC)c1OC` [Compound P22, N-{4-[6,6-Bis-(4-fluoro-phenyl)-hexanoylamino]-but-2-ynyl}-3,4,5-trimethoxy-benzamide]: the IC50 in test [1] (setting [3]) came to 237 nM; in test [1] (setting [4]) it was 139 nM; in test [2] (setting [5]) it was 358 nM; in test [2] (setting [6]) it was 78 nM.
On to `O=C(CCCCC(c1ccc(F)cc1)c1ccc(F)cc1)NC/C=C/CNC(=O)c1ccc(F)cc1` [Compound P20, N-{(E)-4-[6,6-Bis-(4-fluoro-phenyl)-hexanoylamino]-but-2-enyl}-4-fluoro-benzamide], for which the IC50 in test [1] (setting [3]) turned out to be 188 nM; in test [1] (setting [4]), 134 nM; in test [2] (setting [5]), 126 nM; in test [2] (setting [6]), 43 nM.
The like results for `O=C(CC(c1ccccc1)c1ccccc1)NCC#CCN(Cc1cccnc1)Cc1cccnc1` [Compound P31, N-[4-(Bis-pyridin-3-ylmethyl-amino)-but-2-ynyl]-3,3-diphenyl-propionamide] were, in that order, 420 nM, 420 nM, 94 nM and 27 nM.
For the molecule `O=C(CC(c1ccccc1)c1ccccc1)NCC#CCN(Cc1ccncc1)Cc1ccncc1` [Compound P30, N-[4-(Bis-pyridin-4-ylmethyl-amino)-but-2-ynyl]-3,3-diphenyl-propionamide], the IC50 amounted to 340 nM in test [1] (setting [3]), 330 nM in test [1] (setting [4]), 82 nM in test [2] (setting [5]) and 21 nM in test [2] (setting [6]).
The corresponding values for `COc1c(C(C)(C)C)cc(C(=O)NC/C=C/CNC(=O)CCCCC(c2ccc(F)cc2)c2ccc(F)cc2)cc1C(C)(C)C` [Compound P12, N-{(E)-4-[6,6-Bis-(4-fluoro-phenyl)-hexanoylamino]-but-2-enyl}-3,5-di-tert-butyl-4-methoxy-benzamide] are 220 nM, 146 nM, 112 nM and 34 nM.
As to `CC(C)c1ccc(C(=O)NC/C=C/CNC(=O)CCCCC(c2ccc(F)cc2)c2ccc(F)cc2)cc1` [Compound P17, N-{(E)-4-[6,6-Bis-(4-fluoro-phenyl)-hexanoylamino]-but-2-enyl}-4-isopropyl-benzamide], the IC50 in test [1] (setting [3]) came to 598 nM; in test [1] (setting [4]), 266 nM; in test [2] (setting [5]), 7 nM; in test [2] (setting [6]), 3 nM.
For `CC(C)(C)c1ccc(C(=O)NCCCCNC(=O)CCCCC(c2ccc(F)cc2)c2ccc(F)cc2)cc1` [Compound P34, N-{4-[6,6-Bis-(4-fluoro-phenyl)-hexanoylamino]-butyl}-4-tert-butyl-benzamide], the half-maximal inhibitory concentration (IC50) in test [1] (setting [3]) came to 291 nM; in test [1] (setting [4]), 165 nM; in test [2] (setting [5]), 177 nM; in test [2] (setting [6]), 141 nM.
The corresponding values for `COc1cc(C(=O)NC/C=C/CNC(=O)CCCCC(c2ccc(F)cc2)c2ccc(F)cc2)cc(OC)c1OC` [Compound P11, N-{(E)-4-[6,6-Bis-(4-fluoro-phenyl)-hexanoylamino]-but-2-enyl}-3,4,5-trimethoxy-benzamide] are 331 nM, 196 nM, 155 nM and 51 nM.
With `CC(C)(C)c1cc(C(=O)NC/C=C/CNC(=O)CCCCC(c2ccc(F)cc2)c2ccc(F)cc2)cc(C(C)(C)C)c1O` [Compound P13, N-{(E)-4-[6,6-Bis-(4-fluoro-phenyl)-hexanoylamino]-but-2-enyl}-3,5-di-tert-butyl-4-hydroxy-benzamide], the IC50 in test [1] (setting [3]) was found to be 790 nM; in test [1] (setting [4]), 540 nM.
The like results for `CC(C)(C)c1ccc(C(=O)NC/C=C/CNC(=O)CCCCC(c2ccc(F)cc2)c2ccc(F)cc2)cc1` [Compound P14, N-{(E)-4-[6,6-Bis-(4-fluoro-phenyl)-hexanoylamino]-but-2-enyl}-4-tert-butyl-benzamide] were, in that order, 510 nM and 380 nM.
For the molecule `O=C(CC(c1ccccc1)c1ccccc1)NC/C=C/CN(Cc1ccncc1)Cc1ccncc1` [Compound P21, N-[(E)-4-(Bis-pyridin-4-ylmethyl-amino)-but-2-enyl]-3,3-diphenyl-propionamide], the concentration for half-maximal inhibition (IC50) in test [1] (setting [3]) worked out at 514 nM; in test [1] (setting [4]), 278 nM; in test [2] (setting [5]), 423 nM; in test [2] (setting [6]) it was 163 nM.
Take `CC(C)c1ccc(C(=O)NCC#CCNC(=O)CCCCC(c2ccc(F)cc2)c2ccc(F)cc2)cc1` [Compound P25, N-{4-[6,6-Bis-(4-fluoro-phenyl)-hexanoylamino]-but-2-ynyl}-4-isopropyl-benzamide]: the half-maximal inhibitory concentration (IC50) in test [1] (setting [3]) stood at 770 nM; in test [1] (setting [4]), 760 nM; in test [2] (setting [5]) it was 1000 nM; in test [2] (setting [6]) it was 424 nM.
`CC(C)(C)c1cc(C(=O)NC/C=C\CNC(=O)CCCCC(c2ccc(F)cc2)c2ccc(F)cc2)cc(C(C)(C)C)c1O` [Compound P3, N-{(Z)-4-[6,6-Bis-(4-fluoro-phenyl)-hexanoylamino]-but-2-enyl}-3,5-di-tert-butyl-4-hydroxy-benzamide]: the IC50 was 470 nM in test [1] (setting [3]) and 270 nM in test [1] (setting [4]).
As to `O=C(CCCCC(c1ccc(F)cc1)c1ccc(F)cc1)NC/C=C/CNC(=O)COc1ccc(Cl)cc1` [Compound P16, 6,6-Bis-(4-fluoro-phenyl)-hexanoic acid{(E)-4-[2-(4-chloro-phenoxy)-acetylamino]-but-2-enyl}-amide], the IC50 came out at 52 nM in test [1] (setting [3]), 15 nM in test [1] (setting [4]), 26 nM in test [2] (setting [5]) and 7 nM in test [2] (setting [6]).
The like results for `O=C(CCCCC(c1ccc(F)cc1)c1ccc(F)cc1)NCCCCNC(=O)COc1ccc(Cl)cc1` [Compound P36, 6,6-Bis-(4-fluoro-phenyl)-hexanoic acid{4-[2-(4-chloro-phenoxy)-acetylamino]-butyl}-amide] were, in that order, 39 nM, 10 nM, 63 nM and 29 nM.
Consider `O=C(CCCCC(c1ccc(F)cc1)c1ccc(F)cc1)NC/C=C/CNC(=O)c1ccc(Cl)cc1` [Compound P18, N-{(E)-4-[6,6-Bis-(4-fluoro-phenyl)-hexanoylamino]-but-2-enyl}-4-chloro-benzamide], for which the IC50 in test [1] (setting [3]) was 809 nM; in test [1] (setting [4]), 305 nM; in test [2] (setting [5]), 149 nM; in test [2] (setting [6]) it was 39 nM.
For `COc1c(C(C)(C)C)cc(C(=O)NC/C=C\CNC(=O)CCCCC(c2ccc(F)cc2)c2ccc(F)cc2)cc1C(C)(C)C` [Compound P2, N-{(Z)-4-[6,6-Bis-(4-fluoro-phenyl)-hexanoylamino]-but-2-enyl}-3,5-di-tert-butyl-4-methoxy-benzamide], the IC50 in test [1] (setting [3]) was 430 nM; in test [1] (setting [4]) it was 310 nM.
As for `CC(C)c1ccc(C(=O)NC/C=C\CNC(=O)CCCCC(c2ccc(F)cc2)c2ccc(F)cc2)cc1` [Compound P7, N-{(Z)-4-[6,6-Bis-(4-fluoro-phenyl)-hexanoylamino]-but-2-enyl}-4-isopropyl-benzamide], the IC50 in test [1] (setting [3]) came to 97 nM; in test [1] (setting [4]), 54 nM; in test [2] (setting [5]) it was 196 nM; in test [2] (setting [6]), 56 nM.
